{
  "source": "patent US11759434B2",
  "about": "“Methods and compositions for treating melanoma and non-melanoma skin cancers” (Sytheon Limited, priority 2022, dated 2023)",
  "key": {"[1]": {"tested_on": "patient derived, NRAS-mutated melanoma cells", "assay": "Cell viability (Alamar blue) in melanoma cells", "assay_type": "cell-based, human", "conditions": "3 days treatment, 3 biological repeats", "experimental": "(§1) In support of the present teachings several experiments were conducted to assess the cytotoxicity of compound 1 (Acetyl Zingerone CAT), available as Synoxyl® AZ from Sytheon Ltd.) and Compound 4, its mono-methoxy analog (3-(4-Methoxy-benzyl)-pentane-2,4-dione (MBPD)), towards normal melanocytes (Normal, C57BL/6 mouse melanocytes, darkly pigmented), and patient derived, NRAS-mutated melanoma cells. On Day 1, the melanoma cells and normal melanocytes were seeded into the black walled 96 well plates (cat. no.—165305, thermo), ˜1000 cells per well and allowed to stand for one day. […] Thereafter, the dye was replaced with 100 ul PBS (Cat. no. 14190-144, Gibco) and cell viability as evidenced by fluorescence was recorded (by Biotek synergy/H1 microplate reader) at 560/590 nm. Cell survival was calculated by subtracting the background (media only) and then normalizing those results with the results obtained from the cells that were not treated with AZ or MBPD. […]"}, "AMPK": {"tested_on": "AMPK", "assay": "AMPK activation study (phosphorylation of AMPK at Thr-172) in epidermal keratinocytes", "assay_type": "cell-based, human", "conditions": "for AMPK-P/Protein Ratio: two hours", "experimental": "(§2) AMPK activation is a known and efficacious treatment for melanoma and non-melanoma skin cancer (See. e.g., Chen. L. et. al., “AMPK Activation by GSK621 Inhibits Human Melanoma Cells In Vitro and In Vivo”, Biochemical and Biophysical Research Communications 480 (2016), 515-521). To ascertain the ability and efficacy of the compounds of Structure 1 to activate AMPK, a cell assay study was undertaken. In the study, human epidermal keratinocytes were grown using EpiLife Media (60 μM calcium) supplemented with 0.2% v/v bovine pituitary extract, 1 μg/ml recombinant human insulin-like growth factor-I, 0.18 μg/ml hydrocortisone, 5 μg/ml bovine transferrin, 0.2 ng/ml human epidermal growth factor. The cells were grown at 37±2° C. and 5±1% CO2. The keratinocytes were seeded into 96-well plates and cultured overnight to allow the cells to adhere to the well plates. Prior to experimental use, the growth media was replaced with basal media (unsupplemented EpiLife Media) for five hours prior to starting any treatments.\nThe ability of the test material to activate AMPK was determined by measuring the phosphorylation of AMPK. The epidermal keratinocytes were treated with the test material prepared in basal media for two hours. At the end of the two-hour incubation the culture media was removed and the cells were fixed in 4% formaldehyde for 20 minutes at room temperature. After the fixation, the cells were washed three times with wash solution (1 minute per wash) and any endogenous peroxidase activity was quenched by adding 100 ul of a 0.3% H2O2 solution to the wells and incubating the plate for another 20 minutes. After washing as described above, non-specific antibody binding was blocked by adding 200 ul of blocking buffer to each well and incubating the plate for 1 hour at room temperature. […] After this incubation the well plate was read using a fluorometer at 530ex/590em to determine AMPK phosphorylation and at 360ex/485em to determine total cellular protein."}, "[2]": {"tested_on": "human epidermal keratinocytes", "assay": "MTT assay (cell viability) after H2O2-induced senescence", "assay_type": "cell-based", "experimental": "as §2\n(§3) The foregoing effect of AZ as an AMPK activator and, in turn, anti-melanoma treatment is especially surprising in light of the pro-viability effect of AZ in normal cells, even those in senescence. Specifically, following on the foregoing experimental methodology, additional studies were conducted on the human keratinocytes cells to assess AZ's impact on cell viability as evidenced by an MTT assay as well as an assessment of its impact on SA-B-Gal activity. In these studies, the human epidermal keratinocytes were treated in basal media for two hours with the test material and then treated with either 50 uM or 100 uM H2O2 in basal media for an additional two hours: the latter treatment to induce senescence. Following the H2O2 treatment, the cells were placed in with fully supplemented EpiLife media for either 16 hours after which changes in cell viability was evaluated via an MTT assay or for 3 days after which changes in the cellular senescence marker beta galactosidase (SA-B-GAL) was evaluated.\nMTT Calculation: the mean MIT absorbance value for untreated cells not exposed to H2O2 was calculated and used to represent 100% cell viability. The individual MIT values from the cells undergoing the various treatments was then divided by the mean value for the untreated cells not exposed to H2O2 and expressed as a percent to determine the change in cell viability caused by each treatment."}, "[3]": {"tested_on": "Senescent Associated β-Galactosidase (SA-B-Gal)", "assay": "Senescent Associated β-Galactosidase (SA-B-Gal) activity assay", "assay_type": "cell-based, human", "conditions": "3 days", "experimental": "as §2, §3\nSA-B-GAL Calculation: To determine the changes in SA-B-GAL expression a direct measure of SA-B-GAL activity was used. At the end of the three-day incubation the media was removed, 100 ul of ice-cold cell lysis buffer was added and the cells were lysed for 5 minutes at 4° C. At the end of this lysis procedure a portion of the lysate was used for a protein assay while 50 ul of the cell lysate was transferred to a new well plate and combined with an equal volume of SA-B-GAL reaction buffer containing a fluorescent substrate. This well plate was then incubated for 3 hours at 37° C., after which a 50 ul sample of the reaction was combined with 200 ul of stop solution in a new well plate and the plate was read using a fluorometer (360ex/485em), The fluorescence intensity was then normalized to cellular protein and this ratio was used as an index of SA-B-GAL activity."}, "[4]": {"tested_on": "Normal, C57BL/6 mouse melanocytes, darkly pigmented", "assay": "Cell viability (Alamar blue) in normal melanocytes", "assay_type": "cell-based", "conditions": "Melanocyte, 72 h, 3 days treatment, 4 biological repeats", "experimental": "as §1"}, "[5]": {"tested_on": "Trametinib resistant human, NRAS mutated, WM1366 melanoma cells", "assay": "MBPD/Trametinib synergy, cell viability (Alamar blue)", "assay_type": "cell-based", "method": "Specifically, Trametinib resistant human, NRAS mutated, WM1366 melanoma cells were created in-house by sequentially treating the cells with various concentrations (2 nM-10 nM) of Trametinib for several weeks. Those cells which survived 2 nM Trametinib after two weeks, were then incubated with 4 nM Trametinib and those that survived 4 nM Trametinib for two weeks were isolated and then incubated with 10 nM for several weeks. This led to development of resistance in the WM1366 cells.\nIn this study, the Trametinib resistant cells were seeded into black walled 96 well plates (cat. no.—165305, thermo), ˜1000 cells per well employing the same media as noted in Example 1. On Day 2, the cells were treated with 125 or 62.5 μg/ml MBPD and incubated for 48 hours. After 48 hours, fresh cell-culture medium was added with MBPD and Trametinib at concentrations of 30, 15, 7.5, 3.75, 1.875, and 0.9375 nM and the cells allowed to sit for 72 hours. On Day 7, Alamar blue (cat. no. A50101, invitrogen) was added to each well and the cultures incubated for 1 hr in a CO2 incubator. Thereafter, the dye was replaced with 100 ul PBS (Cat no. 14190-144, Gibco) and cell viability as evidenced by fluorescence was recorded (by Biotek synergy/H1 microplate reader) at 560/590 nm.\nMolar (M) IC50 values were calculated using formula weight of each of the compounds individually."}},
  "note": "pIC50: −log10 of the molar value.",
  "data": [
    {"smiles": "COc1cc(CC(C(C)=O)C(C)=O)ccc1O", "note": "[AZ, Acetyl Zingerone]", "values": [
      {"measurement": "pIC50", "setting": "[1]", "result": 2.89},
      {"measurement": "AMPK-P/Protein Ratio", "setting": "AMPK; 25 μg/ml", "result": "4.16 ± 0.65"},
      {"measurement": "increase of AMPK activity", "setting": "AMPK; 50 μg/ml", "result": 88.3, "unit": "%"},
      {"measurement": "AMPK-P/Protein Ratio", "setting": "AMPK; 50 μg/ml", "result": "6.48 ± 1.10"},
      {"measurement": "Viability (% of non-H2O2 exposed cells)", "setting": "[2]; 12.5 μg/ml, 50 μM H2O2", "result": "79.9 ± 11.5", "unit": "%"},
      {"measurement": "Viability (% of non-H2O2 exposed cells)", "setting": "[2]; 12.5 μg/ml, 100 μM H2O2", "result": "79.1 ± 1.4", "unit": "%"},
      {"measurement": "Viability (% of non-H2O2 exposed cells)", "setting": "[2]; 25 μg/ml, 50 μM H2O2", "result": "76.1 ± 6.9", "unit": "%"},
      {"measurement": "Viability (% of non-H2O2 exposed cells)", "setting": "[2]; 25 μg/ml, 100 μM H2O2", "result": "77.4 ± 9.6", "unit": "%"},
      {"measurement": "Viability (% of non-H2O2 exposed cells)", "setting": "[2]; 50 μg/ml, 50 μM H2O2", "result": "100.7 ± 8.3", "unit": "%"},
      {"measurement": "Viability (% of non-H2O2 exposed cells)", "setting": "[2]; 50 μg/ml, 100 μM H2O2", "result": "100.2 ± 6.5", "unit": "%"},
      {"measurement": "SA-B-Gal Activity/Protein", "setting": "[3]; 12.5 μg/ml, 50 μM H2O2", "result": "3.45 ± 0.29"},
      {"measurement": "SA-B-Gal Activity/Protein", "setting": "[3]; 12.5 μg/ml, 100 μM H2O2", "result": "3.29 ± 0.37"},
      {"measurement": "SA-B-Gal Activity/Protein", "setting": "[3]; 25 μg/ml, 50 μM H2O2", "result": "3.30 ± 0.23"},
      {"measurement": "SA-B-Gal Activity/Protein", "setting": "[3]; 25 μg/ml, 100 μM H2O2", "result": "3.95 ± 0.36"},
      {"measurement": "SA-B-Gal Activity/Protein", "setting": "[3]; 50 μg/ml, 50 μM H2O2", "result": "0.91 ± 0.06"},
      {"measurement": "SA-B-Gal Activity/Protein", "setting": "[3]; 50 μg/ml, 100 μM H2O2", "result": "0.90 ± 0.15"}
    ]},
    {"smiles": "COc1ccc(CC(C(C)=O)C(C)=O)cc1", "note": "[MBPD, 3-(4-Methoxy-benzyl)-pentane-2,4-dione]", "values": [
      {"measurement": "pIC50", "setting": "[4]", "result": 1.84},
      {"measurement": "pIC50", "setting": "[1]; Homo sapiens, 72 h", "result": 3.40},
      {"measurement": "reduction of the Trametinib IC50 by MBPD", "setting": "[5]; 125 or 62.5 μg/ml MBPD, 48 h pre-incubation then MBPD plus Trametinib 72 h, 2 biological repeats", "result": "~5", "unit": "fold"}
    ]},
    {"smiles": "CC(=O)Nc1cccc(-n2c(=O)n(C3CC3)c(=O)c3c(Nc4ccc(I)cc4F)n(C)c(=O)c(C)c32)c1", "note": "[Trametinib, trametinib, reference compound]", "values": [
      {"measurement": "pIC50", "setting": "[5]; Homo sapiens, in-house generated, Trametinib resistant, NRAS-mutated melanoma cells", "result": "7.70 to 8.00"}
    ]}
  ]
}
